1 sequence from US9365618B2, “Synthetic peptide that induces expression of TNF receptor 2 and use thereof” (TOAGOSEI CO. LTD., priority 2011, dated 2016) can be followed below.

For this assay, the system named is TNFR2. The assay is described as follows: TNFR2 expression-inducing activity against neuroblasts (neuro-2a, fluorescent antibody technique). It counts as cell-based, mouse. Conditions: retinoic acid-differentiated neuro-2a cells, peptide 5 μM, two days incubation, control group set as 1. On the procedure: With respect to each sample obtained in Example 1, the TNFR2 expression-inducing activity was tested against neuroblasts. The control group was supplied with no peptides. The test details are described below.
As the cells under test, a cell line (neuro-2a) established from a commercial mouse neuroblastoma was used. The cells were cultured beforehand in a DMEM medium (i.e., a Dulbecco MEM (DMEM medium, a Gibco product) containing 10% fetal bovine serum (FBS, a Gibco product), 2 mM of L-glutamine, 50 unit/mL of penicillin, and 50 μg/mL of streptomycin), and the number of cells per well in a 96-hole(well) plate was adjusted to approximately 5×10^3. The volume of the medium here was 100 μL/well. […]
Subsequently, the stock solution of one of the samples was added to the wells for each sample group to a peptide concentration in each well of 5 μM. […] After samples (synthetic peptides) were added as described above and continuously incubated further for two days, the expression/induction of TNFR1 and TNFR2 was evaluated according to the fluorescent antibody technique in the same manner as Example 2.
With the level of TNFR1 expression (i.e. fluorescence intensity) of the control group set as 1, relative values are shown. […] With the level of TNFR2 expression (i.e. fluorescence intensity) of the control group set as 1, relative values are shown.

Where no end group is shown, it is not given here.

For the sequence “KKRTLRKNDRKKR (KKRTLRKNDRKKR-NH2; listed as Homo sapiens) [Sample 17, NoLS of human LIMK2]”, the “TNFR2 expression level (relative fluorescence intensity)” value was “at least 1.9”.
